Active and inactive are the calls of the source. The calls are words filed in the database; no cut-off is given here.
How the values were obtained:
Influenza A virus = assay: Antiviral activity against Influenza A virus H1N1 (A/Puerto Rico/8/34) infected in MDCK cells assessed as reduction in virus-induced cytopathic effect incubated for 48 hrs by CCK8 assay; type: functional, organism-based
[1] = Cytotoxicity against MDCK cells by CCK-8 assay; type: toxicity, cell-based, Canis lupus familiaris; conditions: dog
[2] = Selectivity index, ratio of CC50 for MDCK cells to EC50 for antiviral activity against Influenza A virus H1N1 (A/Puerto Rico/8/34) infected in MDCK cells; type: toxicity, cell-based; conditions: dog, read-out: Ratio CC50/EC50
[3] = Tmax in Sprague-Dawley rat at 3 mg/kg, iv measured up to 24 hrs by LC-MS analysis; type: ADME, organism-based; conditions: in vivo
[4] = Half life in Sprague-Dawley rat at 3 mg/kg, iv measured up to 24 hrs by LC-MS analysis; type: ADME, organism-based; conditions: in vivo
Influenza B virus [5] = assay: Antiviral activity against influenza B virus B/Yamagata/16/88 infected in MDCK cells; type: functional, organism-based; conditions: B/Yamagata/16/88, MDCK
[6] = AUC(0 to t) in Sprague-Dawley rat at 3 mg/kg, iv measured up to 24 hrs by LC-MS analysis; type: ADME, organism-based; conditions: in vivo
[7] = Half life in Sprague-Dawley rat at 10 mg/kg, po measured up to 24 hrs by LC-MS analysis; type: ADME, organism-based; conditions: in vivo
[8] = Tmax in Sprague-Dawley rat at 10 mg/kg, po measured up to 24 hrs by LC-MS analysis; type: ADME, organism-based; conditions: in vivo
[9] = Oral bioavailability in Sprague-Dawley rat at 10 mg/kg measured up to 24 hrs by LC-MS analysis; type: ADME, organism-based; conditions: in vivo
[10] = AUC(0 to infinity) in Sprague-Dawley rat at 10 mg/kg, po measured up to 24 hrs by LC-MS analysis; type: ADME, organism-based; conditions: in vivo
[11] = AUC(0 to t) in Sprague-Dawley rat at 10 mg/kg, po measured up to 24 hrs by LC-MS analysis; type: ADME, organism-based; conditions: in vivo
Influenza B virus [12] = assay: Antiviral activity against influenza B virus Victoria/2/87 infected in MDCK cells; type: functional, organism-based; conditions: Victoria/2/87, MDCK
[13] = Cmax in Sprague-Dawley rat at 3 mg/kg, iv measured up to 24 hrs by LC-MS analysis; type: ADME, organism-based; conditions: in vivo
[14] = AUC(0 to infinity) in Sprague-Dawley rat at 3 mg/kg, iv measured up to 24 hrs by LC-MS analysis; type: ADME, organism-based; conditions: in vivo
[15] = Cmax in Sprague-Dawley rat at 10 mg/kg, po measured up to 24 hrs by LC-MS analysis; type: ADME, organism-based; conditions: in vivo
[16] = Clearance in Sprague-Dawley rat at 3 mg/kg, iv measured up to 24 hrs by LC-MS analysis; type: ADME, organism-based; conditions: in vivo

Row | SMILES | EC50 (Influenza A virus) | CC50 [1] | selectivity ratio [2] | further results
1 | CC(C)(C)c1ccc(C(=O)NC(=S)Nc2ccccn2)cc1 | 0.319 µM | > 100 µM | > 314 | 
2 | CCC(=O)Nc1ccc(NC(=S)NC(=O)c2ccc(C(C)(C)C)cc2)cc1 | 0.016 µM | 86.9 µM | 5430 | Tmax [3]: 4.8 min; half-life [4]: 51 min; EC50 (Influenza B virus [5]): 2.5 µM; AUC(0-t) at 24 h [6]: 1240 ng·h/mL; half-life [7]: 113 min; Tmax [8]: 25.2 min; bioavailability [9]: 0.83%; AUC(0-inf) [10]: 36 ng·h/mL; AUC(0-t) at 24 h [11]: 34 ng·h/mL; EC50 (Influenza B virus [12]): 3.1 µM; Cmax [13]: 3650 ng/mL; AUC ([14]; iv, 3 mg/kg, 24 h): 1236 ng·h/mL; Cmax [15]: 13 ng/mL
3 | Cc1ccccc1NC(=S)NC(=O)c1ccc(C(C)(C)C)cc1 | 0.038 µM | > 100 µM | > 2630 | 
4 | CC(C)(C)c1ccc(C(=O)NC(=S)Nc2cc(Br)cc(Br)c2)cc1 | 0.64 µM | 70.9 µM | 111 | 
5 | COc1ccc(C(=O)NC(=S)Nc2ccc(NC(C)=O)cc2)cc1 |  |  |  | Activity (Influenza A virus): inactive
6 | CC(=O)Nc1ccc(NC(=S)NC(=O)c2cc3ccccc3s2)cc1 | 0.27 µM | 90.2 µM | 334 | 
7 | COc1cccc(C(=O)NC(=S)Nc2ccc(NC(C)=O)cc2)c1 |  |  |  | Activity (Influenza A virus): inactive
8 | CC(C)(C)c1ccc(C(=O)NC(=S)Nc2c(Br)cc(Br)cc2Br)cc1 | 0.36 µM | 60.7 µM | 169 | 
9 | CC(C)(C)c1ccc(C(=O)NC(=S)Nc2ccccc2Br)cc1 | 0.032 µM | 85.1 µM | 2660 | 
10 | CC(C)(C)c1ccc(C(=O)NC(=S)Nc2ccc(NC(=O)c3ccc(F)cc3)cc2)cc1 | 0.027 µM | > 100 µM | > 3700 | 
11 | Cc1ccc(C(=O)Nc2ccc(NC(=S)NC(=O)c3ccc(C(C)(C)C)cc3)cc2)cc1 | 0.027 µM | > 100 µM | > 3700 | 
12 | CCCCc1ccc(C(=O)Nc2ccc(NC(=S)NC(=O)c3ccc(C(C)(C)C)cc3)cc2)cc1 | 0.008 µM | > 100 µM | > 12500 | 
13 | CC(=O)Nc1ccc(NC(=S)NC(=O)c2ccc(N(C)C)cc2)cc1 |  |  |  | Activity (Influenza A virus): inactive
14 | CC(C)(C)c1ccc(C(=O)NC(=S)Nc2ccc(-n3cncn3)cc2)cc1 | 0.7 µM | 54 µM | 77.1 | 
15 | CC(C)(C)c1ccc(C(=O)NC(=S)Nc2ccc3ccccc3n2)cc1 | 0.83 µM | 91.7 µM | 110 | 
16 | CC(C)(C)c1ccc(C(=O)NC(=S)Nc2ccc(NC(=O)c3ccc(Cl)cc3)cc2)cc1 | 0.003 µM | > 100 µM | > 33300 | EC50 (Influenza B virus [5]): 0.3 µM; EC50 (Influenza B virus [12]): 0.9 µM
17 | COc1ccccc1C(=O)Nc1ccc(NC(=S)NC(=O)c2ccc(C(C)(C)C)cc2)cc1 | 0.027 µM | 72.2 µM | 2670 | 
18 | CCc1ccc(C(=O)Nc2ccc(NC(=S)NC(=O)c3ccc(C(C)(C)C)cc3)cc2)cc1 | 0.001 µM | > 100 µM | > 100000 | 
19 | CC(C)(C)c1ccc(C(=O)NC(=S)Nc2c(Cl)cc(Cl)cc2Cl)cc1 | 0.48 µM | 80.2 µM | 167 | 
20 | CC(C)(C)c1ccc(C(=O)NC(=S)Nc2ccccc2F)cc1 | 0.045 µM | > 100 µM | > 2220 | 
21 | CC(C)(C)c1ccc(C(=O)NC(=S)Nc2ccc(O)cc2)cc1 | 0.02 µM | 77.7 µM | 3880 | Tmax [3]: 4.8 min; half-life [4]: 30.6 min; clearance [16]: 46.4 mL/min/kg; EC50 (Influenza B virus [5]): 4 µM; AUC(0-t) at 24 h [6]: 1100 ng·h/mL; Tmax [8]: 94.8 min; bioavailability [9]: 1.21%; AUC(0-t) at 24 h [11]: 44.3 ng·h/mL; EC50 (Influenza B virus [12]): 5.2 µM; Cmax [13]: 2520 ng/mL; AUC(0-inf) ([14]; Sprague-Dawley): 1100 ng·h/mL; Cmax [15]: 12.8 ng/mL
22 | CC(=O)Nc1ccc(NC(=S)NC(=O)c2cccs2)cc1 | 2.44 µM | 52.2 µM | 21.4 | 
23 | CC(C)(C)c1ccc(C(=O)NC(=S)Nc2ccc(NC(=O)c3ccc(Br)cc3)cc2)cc1 | 0.008 µM | > 100 µM | > 12500 | 
24 | CC(C)(C)c1ccc(C(=O)NC(=S)Nc2ccc(F)cc2F)cc1 | 0.72 µM | 95.7 µM | 133 | 
25 | COc1ccc(C(=O)Nc2ccc(NC(=S)NC(=O)c3ccc(C(C)(C)C)cc3)cc2)cc1 | 0.003 µM | 72.2 µM | 24100 | EC50 (Influenza B virus [5]): 0.3 µM; EC50 (Influenza B virus [12]): 0.4 µM

Row | SMILES | EC50 (Influenza A virus) | CC50 [1] | selectivity ratio [2] | further results
26 | CC(=O)Nc1ccc(NC(=S)NC(=O)c2ccccc2Cl)cc1 |  |  |  | Activity (Influenza A virus): inactive
27 | CC(C)(C)C(=O)Nc1ccc(NC(=S)NC(=O)c2ccc(C(C)(C)C)cc2)cc1 | 0.015 µM | 81 µM | 5400 | 
28 | Cc1ncn(-c2ccc(NC(=S)NC(=O)c3ccc(C(C)(C)C)cc3)cc2)n1 | 16.9 µM | 52.7 µM | 3.1 | 
29 | CC(C)(C)c1ccc(C(=O)NC(=S)Nc2ccc(C(F)(F)F)cc2C(F)(F)F)cc1 | 0.45 µM | 74.3 µM | 165 | 
30 | COc1ccccc1NC(=S)NC(=O)c1ccc(C(C)(C)C)cc1 | 0.11 µM | > 100 µM | > 909 | 
31 | CC(C)(C)c1ccc(C(=O)NC(=S)Nc2ccccc2Cl)cc1 | 0.036 µM | 48 µM | 1330 | 
32 | CC(C)(C)c1ccc(C(=O)NC(=S)Nn2cnnc2)cc1 | 0.88 µM | 65.9 µM | 74.9 | 
33 | O=C(NC(=S)Nc1ccccc1F)c1cc2ccccc2s1 | 10 µM | > 100 µM | > 10 | 
34 | Cc1ccc(NC(=S)NC(=O)c2ccc(C(C)(C)C)cc2)c(Br)c1 | 0.032 µM | 41.1 µM | 1280 | EC50 (Influenza B virus [5]): 3.2 µM; EC50 (Influenza B virus [12]): 6.2 µM
35 | CCCCCc1ccc(C(=O)Nc2ccc(NC(=S)NC(=O)c3ccc(C(C)(C)C)cc3)cc2)cc1 | 0.01 µM | 77.2 µM | 7720 | 
36 | CC(C)(C)c1ccc(C(=O)NC(=S)Nc2c(Br)cccc2Br)cc1 | 0.17 µM | 70.9 µM | 417 | 
37 | CC(C)(C)c1ccc(C(=O)NC(=S)Nc2ccc(N)cc2)cc1 | 0.024 µM | 100 µM | 4170 | EC50 (Influenza B virus [5]): 1.9 µM; EC50 (Influenza B virus [12]): 4.9 µM
38 | CC(=O)Nc1ccc(NC(=S)NC(=O)c2ccccc2)cc1 |  |  |  | Activity (Influenza A virus): inactive
39 | CC(C)(C)c1ccc(C(=O)NC(=S)Nc2ccc(F)cc2)cc1 | 0.61 µM | > 100 µM | > 164 | 
40 | CC(C)(C)c1ccc(C(=O)NC(=O)Nc2ccccc2F)cc1 | 0.15 µM | 97.9 µM | > 667 | 
41 | CC(=O)Nc1ccc(NC(=S)NC(=O)c2ccc(C(C)C)cc2)cc1 | 11.2 µM | 46.9 µM | 4.2 | 
42 | CC(C)(C)c1ccc(C(=O)N2C(=O)CN(c3ccccc3F)C2=S)cc1 | 3.6 µM | 25.4 µM | 7.1 | 
43 | Cc1ccc(NC(=S)NC(=O)c2ccc(C(C)(C)C)cc2)c(C)c1 | 0.044 µM | 97.9 µM | 2220 | 
44 | CC(C)(C)c1ccc(C(=O)NC(=S)Nc2ccc(NC(=O)c3ccccc3)cc2)cc1 | 0.004 µM | 77.2 µM | 19300 | EC50 (Influenza B virus [5]): 0.7 µM; EC50 (Influenza B virus [12]): 0.6 µM
45 | CC(=O)Nc1ccc(NC(=S)NC(=O)c2ccc(Cl)cc2)cc1 |  |  |  | Activity (Influenza A virus): inactive
46 | CC(C)(C)c1ccc(C(=O)NC(=S)Nc2cccc(F)c2)cc1 | 0.091 µM | 50.5 µM | 555 | 
47 | CC(=O)Nc1ccc(NC(=S)NC(=O)c2ccc(C(C)(C)C)cc2)cc1 | 0.25 µM | 50 µM | 200 | 
48 | CC(=O)N[C@H]1[C@H]([C@H](O)[C@H](O)CO)OC(C(=O)O)=C[C@@H]1N=C(N)N [ZANAMIVIR] |  | > 100 µM | > 1540 | 
49 | CCCc1ccc(C(=O)Nc2ccc(NC(=S)NC(=O)c3ccc(C(C)(C)C)cc3)cc2)cc1 | 0.001 µM | > 100 µM | > 100000 | 
50 | COc1cccc(C(=O)Nc2ccc(NC(=S)NC(=O)c3ccc(C(C)(C)C)cc3)cc2)c1 | 0.023 µM | 72.2 µM | 3140 | 

Source: ChEMBL document CHEMBL5625209, “Rational design and optimization of acylthioureas as novel potent influenza virus non-nucleoside polymerase inhibitors” (Eur J Med Chem, 2023)
